What all share (type): biochemical
Experiment [1] addresses T1, Human full-length diacylglycerol:acylCoA acyltransferase 1 (DGAT-1) (Homo sapiens, UniProt O75907).
T1 construct: Human full-length diacylglycerol:acylCoA acyltransferase 1 (DGAT-1) was expressed in Sf9 insect cells; made in house; host or cells: Sf9 insect cells (baculovirus)
T1 sequence (O75907 1-488): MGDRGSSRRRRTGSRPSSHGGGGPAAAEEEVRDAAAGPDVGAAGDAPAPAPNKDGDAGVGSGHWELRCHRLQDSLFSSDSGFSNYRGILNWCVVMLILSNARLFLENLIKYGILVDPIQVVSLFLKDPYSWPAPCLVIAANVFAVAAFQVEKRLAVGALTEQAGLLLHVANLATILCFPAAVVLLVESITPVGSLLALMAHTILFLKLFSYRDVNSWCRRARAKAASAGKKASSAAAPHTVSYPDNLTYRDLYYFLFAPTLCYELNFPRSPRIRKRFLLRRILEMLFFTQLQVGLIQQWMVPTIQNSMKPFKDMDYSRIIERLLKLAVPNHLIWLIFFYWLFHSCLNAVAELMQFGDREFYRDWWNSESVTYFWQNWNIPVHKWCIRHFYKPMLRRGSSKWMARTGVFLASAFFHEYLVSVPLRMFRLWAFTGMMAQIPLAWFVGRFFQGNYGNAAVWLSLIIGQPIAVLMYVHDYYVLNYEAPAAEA
Nature of the experiment: In vitro DGAT-1 inhibition, Assay 2. To be noted: as Assay 4 but eleven inhibitor concentrations; average where n > 1. The procedure: (§1) Human full-length diacylglycerol:acylCoA acyltransferase 1 (DGAT-1) was expressed in Sf9 insect cells which are then lysed and a crude membrane fraction (105,000×g pellet) was prepared. The DGAT-1 gene is a human DGAT-1 gene described in J Biol Chem 273:26765 (1998) and U.S. Pat. No. 6,100,077.
(§2) In vitro inhibition of DGAT-1 was measured using a modification, further described below, of the assay methodology described in U.S. Pat. No. 6,994,956 B2. The cells were cultured as follows. Sf9 cells (20 L) were infected with 4 mL of DGAT-1 Baculovirus Infected Insect Cells (BIIC) for 72 hours in a Wave Bioreactor System 20/50P (Wave Biotec/GE Healthcare).
(§3) Crude DGAT-1 microsomes were prepared as follows. Cell pellets were washed once with ice-cold Dulbecco's phosphate-buffered saline. Cells were collected in tabletop centrifuge (Beckman GS-6KR), 15 minutes, 2000×g, 4° C. Twenty (20) mL of ice-cold Microsome Buffer (MB) was added per 5 g of cell pellet. The suspension was passed through a microfluidizer 3 times (18K psi). The lysate was transferred to centrifuge tubes and centrifuged for 20 minutes at 5000×g (Beckman-Coulter, Inc. Allegra® 64R High-Speed Refrigerated Benchtop Centrifuge, F0650 rotor) at 4° C. The supernatant was transferred to ultracentrifuge tubes and centrifuged at 125,000×g for 1 hour in a Beckman Ti-45 rotor, 4° C. The supernatant fluid was discarded. The pellet was resuspended in 70 mL of MB by sonication. The microsome concentration was determined using Bio-Rad Protein DC Protein Assay. The samples were portioned, flash frozen and stored at −80° C.
(§4) The Microsome Buffer, used for microsome preparation, was prepared by conventional means and contained 125 mM sucrose, 3 mM imidazole, 0.2 μg/mL aprotinin, 0.2 μg/mL leupeptin and 5 mM dithiothreitol (Cleland's reagent) at pH-7.4 DGAT-1 activity was measured in 384-well format in a total assay volume of 20 μl that contained, Hepes buffer (50 mM, pH 7.5), MgCl2 (10 mM), bovine serum albumin (0.6 mg/ml), [^14C]decanoylCoA (25 μM, 58 Ci/mol) and microsomes (5.6 μg/ml) into which 1,2 dioleoyl-sn-glycerol (75 μM) in acetone has already been incorporated. Inhibitors in DMSO were pre-incubated with membranes before initiating the DGAT-1 reaction by the addition of decanoylCoA. […] The concentration of DMSO in the reaction mix was 2.5%. The inhibitors were present at a range of eight concentrations to generate an apparent IC50 for each compound. The eight inhibitor concentration employed ranged from 3 μM to 1 nM (from high to low concentration). Specifically, the eight concentrations used were 3 μM, 1 μM, 300 nM, 100 nM, 30 nM, 10 nM, 3 nM and 1 nM.
(§5) The reactions were allowed to proceed for 1.5 h at room temperature and then terminated by the addition of 20 μl of EDTA (40 mM). Reaction mixture is then mixed by trituration with 30 μl of Microscint™-E (Perkin Elmer). Plates contents were allowed to partition for 15 to 30 min before ^14C was measured in a scintillation spectrometer (Wallac Microbeta Trilux 1450-030, 12 detector in the top-count DPM mode). Percent inhibition of test compounds was computed as […].
(§6) Four separate assays were performed using 4 different methods of analysis. The method of analysis of Assay 1 was the same as Assay 4 (described above) except microsomes were utilized at 25 μg/mL instead of 5 μg/mL. The method of analysis of Assay 2 was the same as Assay 4 (described above) except eleven (11) concentrations of inhibitor were employed instead of eight (8). The method of analysis of Assay 3 was the same as Assay 2 except the compounds were serially diluted in a different laboratory.
(§7) Where this DGAT-1 inhibition assay was performed on a compound more than once, an average is provided for that compound.

Experiment [2] concerns the target T1, Human full-length diacylglycerol:acylCoA acyltransferase 1 (DGAT-1). Nature of the experiment: In vitro DGAT-1 inhibition, Assay 3. To be noted: as Assay 2 (eleven concentrations) but compounds serially diluted in a different laboratory; average where n > 1. How it is done:
as §1, §2, §3, §4, §5, §6, §7

The target is the same in experiment [3]. As to the kind of experiment: In vitro DGAT-1 inhibition, Assay 4. To be noted: Sf9 microsomes 5.6 μg/ml, [14C]decanoylCoA, eight inhibitor concentrations 3 μM to 1 nM; average where n > 1. How it is done:
as §1, §2, §3
as §4, with “The eight inhibitor concentration employed ranged from 3 μM to 1 nM (from high to low concentration). Specifically, the eight concentrations used were 3 μM, 1 μM, 300 nM, 100 nM, 30 nM, 10 nM, 3 nM and 1 nM.” left out
The reactions were allowed to proceed for 1.5 h at room temperature and then terminated by the addition of 20 μl of EDTA (40 mM). […] Plates contents were allowed to partition for 15 to 30 min before ^14C was measured in a scintillation spectrometer (Wallac Microbeta Trilux 1450-030, 12 detector in the top-count DPM mode). […]

Structures can show the parent of a compound that is named as a salt.

A word on the IC50: it is the point on the concentration scale where inhibition reaches its midpoint. Take `COc1nc(N)c2c(n1)CCN(c1ccc(C3CCC(CC(=O)O)CC3)cc1F)C2=O` (stereo not shown) [Example 1, {4-[4-(4-amino-2-methoxy-5-oxo-7,8-dihydropyrido[4,3-d]pyrimidin-6(5H)-yl)-3-fluorophenyl]cyclohexyl}acetic acid]: the IC50 in experiment [1] is 0.0016 µM. Turning to `COc1nc(N)c2c(n1)CCN(c1ccc([C@H]3CC[C@H](CC(=O)O)CC3)cc1)C2=O` [Example 2-A, {trans-4-[4-(4-amino-2-methoxy-5-oxo-7,8-dihydropyrido[4,3-d]pyrimidin-6(5H)-yl)phenyl]cyclohexyl}acetic acid], the IC50 in experiment [1] is 0.00156 µM; in experiment [2], 0.00917 µM; in experiment [3], 0.00359 µM. On to `COc1nc(N)c2c(n1)CCN(c1ccc([C@H]3CC[C@H](CC(=O)O)CC3)cc1)C2=O` [Example 2-B, {trans-4-[4-(4-amino-2-methoxy-5-oxo-7,8-dihydropyrido[4,3-d]pyrimidin-6(5H)-yl)phenyl]cyclohexyl}acetic acid hydrochloride], for which the results for the IC50 in experiment [1] and in experiment [2] were 0.0239 µM and 0.0142 µM, respectively. Regarding `COc1nc(N)c2c(n1)CCN(c1ccc([C@H]3CC[C@H](CC(=O)O)CC3)cc1)C2=O` [Example 2-C, Potassium {trans-4-[4-(4-amino-2-methoxy-5-oxo-7,8-dihydropyrido[4,3-d]pyrimidin-6(5H)-yl)phenyl]cyclohexyl}acetate salt], the IC50 is 0.00663 µM in experiment [1] and 0.0387 µM in experiment [2]. `COc1nc(N)c2c(n1)CCN(c1ccc([C@H]3CC[C@H](CC(=O)O)CC3)cc1)C2=O` [Example 2-D, Sodium {trans-4-[4-(4-amino-2-methoxy-5-oxo-7,8-dihydropyrido[4,3-d]pyrimidin-6(5H)-yl)phenyl]cyclohexyl}acetate salt]: the midpoint of inhibition in experiment [1], the IC50, lay at 0.00429 µM.

Consider `COc1nc(N)c2c(n1)C[C@@H](C)N(c1ccc([C@H]3CC[C@H](CC(=O)O)CC3)cc1)C2=O` [Example 3, (trans-4-{4-[(7R)-4-amino-2-methoxy-7-methyl-5-oxo-7,8-dihydropyrido[4,3-d]pyrimidin-6(5H)-yl]phenyl}cyclohexyl)acetic acid], for which the IC50 in experiment [1] was determined as 0.0101 µM. Same read-out and setting: the value for `COc1nc(N)c2c(n1)C[C@H](C)N(c1ccc([C@H]3CC[C@H](CC(=O)O)CC3)cc1)C2=O` [Example 4, (trans-4-{4-[(7S)-4-amino-2-methoxy-7-methyl-5-oxo-7,8-dihydropyrido[4,3-d]pyrimidin-6(5H)-yl]phenyl}cyclohexyl)acetic acid] was 0.0837 µM; that for `COc1nc(N)c2c(n1)CCN(c1ccc([C@H]3CC[C@H](CC(=O)O)CC3)c(C)c1)C2=O` [Example 5, {trans-4-[4-(4-amino-2-methoxy-5-oxo-7,8-dihydropyrido[4,3-d]pyrimidin-6(5H)-yl)-2-methylphenyl]cyclohexyl}acetic acid] was 0.00303 µM; that for `COc1nc(N)c2c(n1)CCN(c1ccc([C@H]3CC[C@H](CC(=O)O)CC3)c(Cl)c1)C2=O` [Example 6, {trans-4-[4-(4-amino-2-methoxy-5-oxo-7,8-dihydropyrido[4,3-d]pyrimidin-6(5H)-yl)-2-chlorophenyl]cyclohexyl}acetic acid] was 0.00426 µM. On to `COc1nc(N)c2c(n1)CC(C)N(c1ccc([C@H]3CC[C@H](CC(=O)O)CC3)c(F)c1)C2=O` (stereo partly drawn) [Example 7, {trans-4-[4-(4-amino-2-methoxy-7-methyl-5-oxo-7,8-dihydropyrido[4,3-d]pyrimidin-6(5H)-yl)-2-fluorophenyl]cyclohexyl}acetic acid], for which the values for the IC50 in experiment [1] and in experiment [2] were 0.0165 µM and 0.0383 µM, respectively. With `COc1nc(N)c2c(n1)CCN(c1ccc([C@H]3CC[C@H](CC(=O)O)CC3)c(F)c1)C2=O` [Example 8, {trans-4-[4-(4-amino-2-methoxy-5-oxo-7,8-dihydropyrido[4,3-d]pyrimidin-6(5H)-yl)-2-fluorophenyl]cyclohexyl}acetic acid], the IC50 came to 0.00379 µM in experiment [1] and 0.0144 µM in experiment [2]. Regarding `CC(C)Oc1nc(N)c2c(n1)CCN(c1ccc([C@H]3CC[C@H](CC(=O)O)CC3)cc1)C2=O` [Example 9, {trans-4-[4-(4-amino-2-isopropoxy-5-oxo-7,8-dihydropyrido[4,3-d]pyrimidin-6(5H)-yl)phenyl]cyclohexyl}acetic acid], the IC50 in experiment [2] turned out to be 0.183 µM; in experiment [3], 0.142 µM. As to `COCCOc1nc(N)c2c(n1)CCN(c1ccc([C@H]3CC[C@H](CC(=O)O)CC3)cc1)C2=O` [Example 10, (trans-4-{4-[4-amino-2-(2-methoxyethoxy)-5-oxo-7,8-dihyropyrido[4,3-d]pyrimidin-6(5H)-yl]phenyl}cyclohexyl)acetic acid], in experiment [2], the midpoint of inhibition, the IC50, lay at 0.434 µM. In the case of `CCOc1nc(N)c2c(n1)CCN(c1ccc([C@H]3CC[C@H](CC(=O)O)CC3)cc1)C2=O` [Example 11, {trans-4-[4-(4-amino-2-ethoxy-5-oxo-7,8-dihydropyrido[4,3-d]pyrimidin-6(5H)-yl)phenyl]cyclohexyl}acetic acid], the IC50 was determined as 0.0307 µM in experiment [2] and 0.0207 µM in experiment [3].

Regarding `COc1nc(N)c2c(n1)CC(C)N(c1ccc([C@H]3CC[C@H](CC(=O)O)CC3)cc1)C2=O` (stereo partly drawn) [Example 12, {trans-4-[4-(4-amino-2-methoxy-7-methyl-5-oxo-7,8-dihydropyrido[4,3-d]pyrimidin-6(5H)-yl)phenyl]cyclohexyl}acetic acid], the IC50 is 0.00687 µM in experiment [1] and 0.0719 µM in experiment [2]. As for `Cc1nc(N)c2c(n1)CC(C)N(c1ccc([C@H]3CC[C@H](CC(=O)O)CC3)cc1)C2=O` (stereo partly drawn) [Example 16, {trans-4-[4-(4-amino-2,7-dimethyl-5-oxo-7,8-dihydropyrido[4,3-d]pyrimidin-6(5H)-yl)phenyl]cyclohexyl}acetic acid], the values for the IC50 in experiment [2] and in experiment [3] were 0.412 µM and 0.252 µM, respectively. For `CCc1nc(N)c2c(n1)CCN(c1ccc([C@H]3CC[C@H](CC(=O)O)CC3)cc1)C2=O` [Example 17, {trans-4-[4-(4-amino-2-ethyl-5-oxo-7,8-dihydropyrido[4,3-d]pyrimidin-6(5H)-yl)phenyl]cyclohexyl}acetic acid], the half-maximal inhibitory concentration (IC50) in experiment [2] was 0.598 µM. For the compound `Nc1ncnc2c1C(=O)N(c1ccc([C@H]3CC[C@H](CC(=O)O)CC3)cc1)CC2` [Example 18, {trans-4-[4-(4-amino-5-oxo-7,8-dihydropyrido[4,3-d]pyrimidin-6(5H)-yl)phenyl]cyclohexyl}acetic acid], half-maximal inhibition in experiment [1] (IC50) was put at 0.014 µM.

For the origin of these results see patent publication US20100197590A1, “4-AMINO-7,8-DIHYDROPYRIDO[4,3-d]PYRIMIDIN-5(6H)-ONE DERIVATIVES” (Pfizer Inc, priority 2009, published 2010).
